Assay results from article PMC5484146 (Journal of the American Chemical Society, 2016).
Each block holds one compound with its values, some of them ahead of it.

How the values were obtained:
[1] = TEM / optical observation of assemblies and aggregates; type: physicochemical
[2] = 1 (800 µM), peaks disappear at 4.0 wt% Tw-80
Hydrogelation test = type: physicochemical; conditions: 4 mM solution of 1, pH changed to pH 6.4, Figure S2

appearance after addition of one equivalent of 2, without ALP ([1]; 1P 500 µM, 1 eq. 2, pH 7.4, TEM aggregates largely unstructured): colloidal suspension | morphology after simultaneous addition of 2 and ALP ([1]; 1P 500 µM, 2 (1 eq.), ALP 1.25 U/mL, pH 7.4, TEM, precipitates over time): large aggregates | morphology after ALP dephosphorylation in the absence of 2 ([1]; 1P 500 µM, ALP 1.25 U/mL, pH 7.4, TEM): long nanofibers
Compound: Nap-FFpYGGaa [1P]

Compound: CN[C@H](CC(C)C)C(=O)N[C@H]1C(=O)N[C@@H](CC(N)=O)C(=O)N[C@H]2C(=O)N[C@H]3C(=O)N[C@H](C(=O)N[C@H](C(=O)O)c4cc(O)cc(O)c4-c4cc3ccc4O)[C@H](O)c3ccc(c(Cl)c3)Oc3cc2cc(c3O)Oc2ccc(cc2Cl)[C@H]1O [vancomycin aglycon, reference compound]
aggregate formation in EISA of 1P when it replaces 2 ([1]; TEM, Figure S20, short fibers were observed): no aggregates were observed

size of the assemblies (DLS peaks) [2]: > 100 nm | appearance after addition of five equivalents of 2 ([1]; 500 µM suspension of 1, 24–48h after the addition, Figure S5): opaque colloidal precipitate | morphology on direct addition in water ([1]; 1 500 µM, pH 7.4, TEM): suspension consisting of nanoribbons | binding with 2 by ITC, in words (ITC in PBS, no surfactant, 1 and 3 as assemblies): too weak to be measured by ITC | hydrogel formation (Hydrogelation test): self-supporting gel
Compound: Nap-FFYGGaa [compound 1]
ITC heating profile on titration with 2, in words (ITC, 1.0 wt% of Tw-80, Figure 2C): release of heat
